Experimental data as given in patent US10544102B2, “Benzazepine dicarboxamide compounds with secondary amide function” (Hoffmann-La Roche Inc., priority 2017, dated 2020).

Tests used:
human TLR8 = target: T1, human TLR8 (Homo sapiens, UniProt Q9NR97); test: HEK-Blue human TLR8 cells NF-κB SEAP reporter assay; format: cell-based; conditions: stimulation for 20 hours, Quanti Blue 640 nm
T1 construct: host or cells: HEK-Blue human TLR8 cells (HEK293-derived reporter line)
T1 sequence (Q9NR97 27-1041): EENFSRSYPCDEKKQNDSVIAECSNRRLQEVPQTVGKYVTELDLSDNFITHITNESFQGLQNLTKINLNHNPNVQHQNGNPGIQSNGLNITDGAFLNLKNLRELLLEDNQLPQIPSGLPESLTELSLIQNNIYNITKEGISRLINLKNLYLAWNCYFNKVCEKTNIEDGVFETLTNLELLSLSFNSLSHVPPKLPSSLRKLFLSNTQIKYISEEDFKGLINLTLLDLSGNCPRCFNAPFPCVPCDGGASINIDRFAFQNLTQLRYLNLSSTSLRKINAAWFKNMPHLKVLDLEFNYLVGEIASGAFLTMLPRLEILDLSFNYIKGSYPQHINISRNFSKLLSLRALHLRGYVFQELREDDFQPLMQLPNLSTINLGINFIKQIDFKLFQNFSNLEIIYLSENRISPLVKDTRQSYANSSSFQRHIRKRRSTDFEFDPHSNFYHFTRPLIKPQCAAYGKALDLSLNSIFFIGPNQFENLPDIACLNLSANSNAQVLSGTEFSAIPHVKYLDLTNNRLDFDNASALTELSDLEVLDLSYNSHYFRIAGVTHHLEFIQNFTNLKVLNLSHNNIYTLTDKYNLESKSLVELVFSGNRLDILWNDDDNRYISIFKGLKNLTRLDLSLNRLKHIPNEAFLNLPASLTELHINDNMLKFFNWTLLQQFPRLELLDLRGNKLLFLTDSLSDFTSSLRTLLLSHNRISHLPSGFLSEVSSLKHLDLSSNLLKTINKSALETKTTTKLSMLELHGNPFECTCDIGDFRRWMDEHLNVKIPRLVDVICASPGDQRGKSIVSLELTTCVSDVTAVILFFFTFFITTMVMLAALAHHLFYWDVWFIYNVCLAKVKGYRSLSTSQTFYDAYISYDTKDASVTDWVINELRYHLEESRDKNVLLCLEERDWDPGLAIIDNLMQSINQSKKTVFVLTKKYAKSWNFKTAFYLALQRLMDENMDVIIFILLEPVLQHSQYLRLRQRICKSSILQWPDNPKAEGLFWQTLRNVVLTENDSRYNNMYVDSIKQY
Text: (§1) For TLR8 and TLR7 activity testing, HEK-Blue human TLR8 or TLR7 cells (Invivogen, San Diego, Calif., USA) are used, respectively. These cells are designed for studying the stimulation of human TLR8 or TLR7 by monitoring the activation of NF-κB. A SEAP (secreted embryonic alkaline phosphatase) reporter gene is placed under the control of the IFN-b minimal promoter fused to five NF-κB and AP-1-binding sites. Therefore the reporter expression is regulated by the NF-κB promoter upon stimulation of human TLR8 or TLR7 for 20 hours. The cell culture supernatant SEAP reporter activity was determined using Quanti Blue kit (Invivogen, San Diego, Calif., USA) at a wavelength of 640 nm, a detection medium that turns purple/blue in the presence of alkaline phosphatase. EC50 values were determined using Activity Base analysis (ID Business Solution, Limited).

human TLR7 = target: T2, human TLR7 (Homo sapiens, UniProt Q9NYK1); test: HEK-Blue human TLR7 cells NF-κB SEAP reporter assay; format: cell-based; conditions: stimulation for 20 hours, Quanti Blue 640 nm
T2 construct: host or cells: HEK-Blue human TLR7 cells (HEK293-derived reporter line)
T2 sequence (Q9NYK1 27-1049): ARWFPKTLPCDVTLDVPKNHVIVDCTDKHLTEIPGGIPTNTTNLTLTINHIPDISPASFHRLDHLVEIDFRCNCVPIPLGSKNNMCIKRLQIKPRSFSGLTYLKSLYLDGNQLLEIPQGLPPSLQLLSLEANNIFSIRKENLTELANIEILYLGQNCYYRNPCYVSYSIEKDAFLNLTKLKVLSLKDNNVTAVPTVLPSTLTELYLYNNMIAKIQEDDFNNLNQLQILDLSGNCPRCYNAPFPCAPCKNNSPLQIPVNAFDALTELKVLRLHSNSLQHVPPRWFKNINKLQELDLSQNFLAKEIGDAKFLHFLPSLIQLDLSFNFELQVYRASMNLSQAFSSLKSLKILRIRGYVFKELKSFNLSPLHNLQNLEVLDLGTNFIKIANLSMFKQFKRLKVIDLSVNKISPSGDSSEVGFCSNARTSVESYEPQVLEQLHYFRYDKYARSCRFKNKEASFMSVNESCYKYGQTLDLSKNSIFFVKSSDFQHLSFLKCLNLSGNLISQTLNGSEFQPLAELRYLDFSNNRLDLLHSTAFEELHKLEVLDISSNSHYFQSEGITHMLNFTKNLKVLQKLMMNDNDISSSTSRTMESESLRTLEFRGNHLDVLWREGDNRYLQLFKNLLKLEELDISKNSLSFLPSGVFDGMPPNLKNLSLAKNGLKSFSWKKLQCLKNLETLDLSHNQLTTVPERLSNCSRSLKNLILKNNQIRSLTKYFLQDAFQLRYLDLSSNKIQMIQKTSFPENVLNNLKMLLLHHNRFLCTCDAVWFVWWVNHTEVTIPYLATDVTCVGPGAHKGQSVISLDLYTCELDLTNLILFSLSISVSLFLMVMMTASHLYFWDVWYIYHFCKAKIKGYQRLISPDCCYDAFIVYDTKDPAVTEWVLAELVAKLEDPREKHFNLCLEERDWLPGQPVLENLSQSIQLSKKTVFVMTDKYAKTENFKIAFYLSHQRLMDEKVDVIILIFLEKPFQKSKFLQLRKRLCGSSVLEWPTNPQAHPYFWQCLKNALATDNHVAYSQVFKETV
Text: as §1

Row | EC50 (human TLR8) | EC50 (human TLR7) | SMILES
1 | 5 nM | 14000 nM | CCCN(CC1CC1)C(=O)C1=Cc2ccc(C(=O)NC3C[C@H]3c3ccccc3)cc2N=C(N)C1 (stereo partly drawn) [Example 22, 2-Amino-N4-(cyclopropylmethyl)-N8-[(2S)-2-phenylcyclopropyl]-N4-propyl-3H-1-benzazepine-4,8-dicarboxamide]
2 | 30 nM | > 100000 nM | CCCN(CCC)C(=O)C1=Cc2ccc(C(=O)NCCc3cccnc3)cc2N=C(N)C1 [Example 20, 2-Amino-N4,N4-dipropyl-N8-[2-(3-pyridyl)ethyl]-3H-1-benzazepine-4,8-dicarboxamide]
3 | 4 nM | > 100000 nM | CCCN(CCC)C(=O)C1=Cc2ccc(C(=O)NC3CN(c4ccccc4)C3)cc2N=C(N)C1 [Example 3, 2-Amino-N8-(1-phenylazetidin-3-yl)-N4,N4-dipropyl-3H-1-benzazepine-4,8-dicarboxamide]
4 | 10 nM | > 100000 nM | CCCN(CCC)C(=O)C1=Cc2ccc(C(=O)N[C@@H]3CCN(c4ccccc4)C3)cc2N=C(N)C1 [Example 28, 2-Amino-N8-[(3R)-1-phenylpyrrolidin-3-yl]-N4,N4-dipropyl-3H-1-benzazepine-4,8-dicarboxamide]
5 | 26 nM | 25000 nM | CCCN(CCC)C(=O)C1=Cc2ccc(C(=O)NCc3ccccc3)cc2N=C(N)C1 [Example 18, 2-Amino-N8-benzyl-N4,N4-dipropyl-3H-1-benzazepine-4,8-dicarboxamide]
6 | 12 nM | 35000 nM | CCCN(CCC)C(=O)C1=Cc2ccc(C(=O)N[C@H](C)c3ccccc3)cc2N=C(N)C1 [Example 14, 2-Amino-N8-[(1R)-1-phenylethyl]-N4,N4-dipropyl-3H-1-benzazepine-4,8-dicarboxamide]
7 | 29 nM | > 100000 nM | CCCN(CCC)C(=O)C1=Cc2ccc(C(=O)NC3(c4ccccc4)CCOCC3)cc2N=C(N)C1 [Example 11, 2-Amino-N8-(4-phenyltetrahydropyran-4-yl)-N4,N4-dipropyl-3H-1-benzazepine-4,8-dicarboxamide]
8 | 7 nM | > 100000 nM | CCCN(CCC)C(=O)C1=Cc2ccc(C(=O)NC3CC(CNc4ccccc4)C3)cc2N=C(N)C1 (stereo not shown) [Example 27, 2-Amino-N8-[3-(anilinomethyl)cyclobutyl]-N4,N4-dipropyl-3H-1-benzazepine-4,8-dicarboxamide]
9 | 24 nM | 52000 nM | CCCN(CCC)C(=O)C1=Cc2ccc(C(=O)NCc3cncs3)cc2N=C(N)C1 [Example 9, 2-Amino-N4,N4-dipropyl-N8-(thiazol-5-ylmethyl)-3H-1-benzazepine-4,8-dicarboxamide]
10 | 2 nM | 10000 nM | CCCN(CCC)C(=O)C1=Cc2ccc(C(=O)NC3CCN(c4ccccc4)CC3)cc2N=C(N)C1 [Example 2, 2-Amino-N8-(1-phenyl-4-piperidyl)-N4,N4-dipropyl-3H-1-benzazepine-4,8-dicarboxamide]
11 | 13 nM | 42000 nM | CCCN(CCC)C(=O)C1=Cc2ccc(C(=O)NCc3nccs3)cc2N=C(N)C1 [Example 12, 2-Amino-N4,N4-dipropyl-N8-(thiazol-2-ylmethyl)-3H-1-benzazepine-4,8-dicarboxamide]
12 | 28 nM | 50000 nM | CCCN(CCC)C(=O)C1=Cc2ccc(C(=O)NC(C)(C)C)cc2N=C(N)C1 [Example 16, 2-Amino-N8-tert-butyl-N4,N4-dipropyl-3H-1-benzazepine-4,8-dicarboxamide]
13 | 6 nM | > 100000 nM | CCCN(CCC)C(=O)C1=Cc2ccc(C(=O)NC3(c4ccccc4)CC3)cc2N=C(N)C1 [Example 5, 2-Amino-N8-(1-phenylcyclopropyl)-N4,N4-dipropyl-3H-1-benzazepine-4,8-dicarboxamide]
14 | 9 nM | > 100000 nM | CCCN(CCC)C(=O)C1=Cc2ccc(C(=O)NC3CCC(CNc4ccccc4)CC3)cc2N=C(N)C1 (stereo not shown) [Example 26, 2-Amino-N8-[4-(anilinomethyl)cyclohexyl]-N4,N4-dipropyl-3H-1-benzazepine-4,8-dicarboxamide]
15 | 14 nM | > 100000 nM | CCCN(CCC)C(=O)C1=Cc2ccc(C(=O)NC3CCCC3)cc2N=C(N)C1 [Example 15, 2-Amino-N8-cyclopentyl-N4,N4-dipropyl-3H-1-benzazepine-4,8-dicarboxamide]
16 | 10 nM | > 100000 nM | CCCN(CCC)C(=O)C1=Cc2ccc(C(=O)N[C@H]3CCN(c4ccccc4)C3)cc2N=C(N)C1 [Example 25, 2-Amino-N8-[(3S)-1-phenylpyrrolidin-3-yl]-N4,N4-dipropyl-3H-1-benzazepine-4,8-dicarboxamide]
17 | 29 nM | > 100000 nM | CCCN(CCC)C(=O)C1=Cc2ccc(C(=O)NCCCc3cccnc3)cc2N=C(N)C1 [Example 21, 2-Amino-N4,N4-dipropyl-N8-[3-(3-pyridyl)propyl]-3H-1-benzazepine-4,8-dicarboxamide]
18 | 19 nM | > 100000 nM | CCCN(CCC)C(=O)C1=Cc2ccc(C(=O)NC3CCN(c4ccccc4)C3)cc2N=C(N)C1 (stereo not shown) [Example 24, 2-Amino-N8-(1-phenylpyrrolidin-3-yl)-N4,N4-dipropyl-3H-1-benzazepine-4,8-dicarboxamide]
19 | 25 nM | 49000 nM | CCCN(CCC)C(=O)C1=Cc2ccc(C(=O)NCc3cccnc3)cc2N=C(N)C1 [Example 19, 2-Amino-N4,N4-dipropyl-N8-(3-pyridylmethyl)-3H-1-benzazepine-4,8-dicarboxamide]
20 | 7 nM | 13000 nM | CCCN(CCC)C(=O)C1=Cc2ccc(C(=O)NC3(c4ccccc4)CCC3)cc2N=C(N)C1 [Example 6, 2-Amino-N8-(1-phenylcyclobutyl)-N4,N4-dipropyl-3H-1-benzazepine-4,8-dicarboxamide]
21 | 25 nM | > 100000 nM | CCCN(CCC)C(=O)C1=Cc2ccc(C(=O)NC3CCC3)cc2N=C(N)C1 [Example 17, 2-Amino-N8-cyclobutyl-N4,N4-dipropyl-3H-1-benzazepine-4,8-dicarboxamide]
22 | 4 nM | 34000 nM | CCCN(CCC)C(=O)C1=Cc2ccc(C(=O)NC3CCCCC3)cc2N=C(N)C1 [Example 4, 2-Amino-N8-cyclohexyl-N4,N4-dipropyl-3H-1-benzazepine-4,8-dicarboxamide]
23 | 12 nM | 40000 nM | CCCN(CCC)C(=O)C1=Cc2ccc(C(=O)NCc3ccon3)cc2N=C(N)C1 [Example 8, 2-Amino-N8-(isoxazol-3-ylmethyl)-N4,N4-dipropyl-3H-1-benzazepine-4,8-dicarboxamide]
